Consider eight molecules from PubChem BioAssay AID252 (DTP/NCI, 2004).

Where “and” joins values, the source holds several entries; their conditions need not be identical. Equal entries are not always repeated. Inconclusive results and toxic doses are left out.

In this assay the test system is BDF1 mice, intracerebral L1210 leukemia, survival T/C. Kind of assay: NCI In Vivo Anticancer Drug Screen. Data for tumor model L1210 Leukemia (intracerebral) in B6D2F1 (BDF1) mice. To be noted: higher = longer survival. Summed up:
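Readout is the T/C ratio: survival of compound-treated animals over that of vehicle-treated controls, in mice bearing transplantable tumour.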

Where [1] appears, read: endpoint: mean survival time, dose: 13.0 mg/kg/injection, schedule: Q01DX001 (ip), vehicle: carboxymethylcellulose (CMC).
[2] abbreviates: endpoint: mean survival time, dose: 67.0 mg/kg/injection, schedule: Q01DX001 (ip), vehicle: carboxymethylcellulose (CMC).

Turning to `O=NN(CCCl)C(=O)N[C@H]1CCCC[C@@H]1Cl`, the T/C (endpoint: mean survival time, dose: 5.0 mg/kg/injection, schedule: Q01DX001 (ip), vehicle: other) is 102 % of control and 96 % of control; the T/C (endpoint: mean survival time, dose: 10.0 mg/kg/injection, schedule: Q01DX001 (ip), vehicle: other) is 106 % of control and 113 % of control; the T/C under setting [1] was 120 % of control; the T/C (endpoint: mean survival time, dose: 13.75 mg/kg/injection, schedule: Q01DX001 (oral), vehicle: other) was 190 % of control and 226 % of control and 230 % of control; the T/C (endpoint: mean survival time, dose: 15.25 mg/kg/injection, schedule: Q01DX001 (ip), vehicle: other) was 158 % of control and 165 % of control and 216 % of control; the T/C (endpoint: mean survival time, dose: 19.0 mg/kg/injection, schedule: Q01DX001 (ip), vehicle: carboxymethylcellulose (CMC)) is 152 % of control. Moreover, the T/C is 175 % of control and 181 % of control (endpoint: mean survival time, dose: 20.0 mg/kg/injection, schedule: Q01DX001 (ip), vehicle: other); 164 % of control and 221 % of control (endpoint: mean survival time, dose: 26.0 mg/kg/injection, schedule: Q01DX001 (ip), vehicle: carboxymethylcellulose (CMC)); 315 % of control and 337 % of control and 442 % of control (endpoint: mean survival time, dose: 27.5 mg/kg/injection, schedule: Q01DX001 (oral), vehicle: other); 163 % of control (endpoint: mean survival time, dose: 30.5 mg/kg/injection, schedule: Q01DX001 (ip), vehicle: carboxymethylcellulose (CMC)); 278 % of control and 293 % of control and 361 % of control (endpoint: mean survival time, dose: 30.5 mg/kg/injection, schedule: Q01DX001 (ip), vehicle: other); 228 % of control and 310 % of control (endpoint: mean survival time, dose: 40.0 mg/kg/injection, schedule: Q01DX001 (ip), vehicle: carboxymethylcellulose (CMC)). Also, the T/C by setting is: (endpoint: mean survival time, dose: 41.0 mg/kg/injection, schedule: Q01DX001 (ip), vehicle: other) 317 % of control and 391 % of control; (endpoint: mean survival time, dose: 46.0 mg/kg/injection, schedule: Q01DX001 (ip), vehicle: carboxymethylcellulose (CMC)) 284 % of control; (endpoint: mean survival time, dose: 55.0 mg/kg/injection, schedule: Q01DX001 (oral), vehicle: other) 184 % of control and 271 % of control and 351 % of control; (endpoint: mean survival time, dose: 60.0 mg/kg/injection, schedule: Q01DX001 (ip), vehicle: carboxymethylcellulose (CMC)) 297 % of control; (endpoint: mean survival time, dose: 61.0 mg/kg/injection, schedule: Q01DX001 (ip), vehicle: carboxymethylcellulose (CMC)) 274 % of control; (endpoint: mean survival time, dose: 61.0 mg/kg/injection, schedule: Q01DX001 (ip), vehicle: other) 178 % of control and 254 % of control. Also, the T/C (endpoint: mean survival time, dose: 83.0 mg/kg/injection, schedule: Q01DX001 (ip), vehicle: other) is 270 % of control and 419 % of control.
As for `O=C(Nc1ccc(C2=NCCCN2)cc1)c1ccc(C(=O)Nc2ccc(C3=NCCCN3)cc2)cc1`, the T/C is 107 % of control (endpoint: mean survival time, dose: 1.25 mg/kg/injection, schedule: Q01DX Z (ip), vehicle: carboxymethylcellulose (CMC)); 107 % of control (endpoint: mean survival time, dose: 2.5 mg/kg/injection, schedule: Q01DX Z (ip), vehicle: carboxymethylcellulose (CMC)); 114 % of control (endpoint: mean survival time, dose: 5.0 mg/kg/injection, schedule: Q01DX Z (ip), vehicle: carboxymethylcellulose (CMC)); 104 % of control (endpoint: mean survival time, dose: 31.0 mg/kg/injection, schedule: Q01DX Z (ip), vehicle: carboxymethylcellulose (CMC)).
Regarding `COc1cc(NS(C)(=O)=O)ccc1Nc1c2ccccc2nc2c(C)cccc12`, the T/C (endpoint: mean survival time, dose: 2.5 mg/kg/injection, schedule: Q01DX009 (ip), vehicle: water) was 116 % of control and 113 % of control; the T/C (endpoint: mean survival time, dose: 2.5 mg/kg/injection, schedule: Q01DX009 (sc), vehicle: water) was 112 % of control and 111 % of control; the T/C (endpoint: mean survival time, dose: 5.0 mg/kg/injection, schedule: Q01DX009 (ip), vehicle: water) was 112 % of control; the T/C (endpoint: mean survival time, dose: 5.0 mg/kg/injection, schedule: Q01DX009 (sc), vehicle: water) is 105 % of control and 104 % of control; the T/C (endpoint: mean survival time, dose: 10.0 mg/kg/injection, schedule: Q01DX009 (sc), vehicle: water) was 103 % of control.
In the case of `CCN(N=O)C(N)=O`, the T/C runs as follows: under setting [2], 97 % of control; (endpoint: mean survival time, dose: 100.0 mg/kg/injection, schedule: Q01DX001 (ip), vehicle: carboxymethylcellulose (CMC)) 105 % of control; (endpoint: mean survival time, dose: 150.0 mg/kg/injection, schedule: Q01DX001 (ip), vehicle: carboxymethylcellulose (CMC)) 104 % of control.
`CS(=O)(=O)CCN(N=O)C(=N)N[N+](=O)[O-]`: the T/C reads like this: (endpoint: mean survival time, dose: 12.0 mg/kg/injection, schedule: Q01DX Z (ip), vehicle: carboxymethylcellulose (CMC)) 97 % of control; (endpoint: mean survival time, dose: 24.0 mg/kg/injection, schedule: Q01DX Z (ip), vehicle: carboxymethylcellulose (CMC)) 100 % of control; (endpoint: mean survival time, dose: 48.0 mg/kg/injection, schedule: Q01DX Z (ip), vehicle: carboxymethylcellulose (CMC)) 109 % of control; (endpoint: mean survival time, dose: 96.0 mg/kg/injection, schedule: Q01DX Z (ip), vehicle: carboxymethylcellulose (CMC)) 90 % of control.
In the case of `C[C@@H]1C[C@@H]([C@H](O)CC2CC(=O)NC(=O)C2)C(=O)[C@@H](C)C1`, the T/C by setting is: (endpoint: mean survival time, dose: 16.0 mg/kg/injection, schedule: Q01DX015 (ip), vehicle: saline) 121 % of control; (endpoint: mean survival time, dose: 24.0 mg/kg/injection, schedule: Q01DX015 (ip), vehicle: saline) 120 % of control; (endpoint: mean survival time, dose: 36.0 mg/kg/injection, schedule: Q01DX015 (ip), vehicle: saline) 116 % of control; (endpoint: mean survival time, dose: 44.0 mg/kg/injection, schedule: Q01DX001 (ip), vehicle: saline) 98 % of control; (endpoint: mean survival time, dose: 67.0 mg/kg/injection, schedule: Q01DX001 (ip), vehicle: saline) 104 % of control; (endpoint: mean survival time, dose: 100.0 mg/kg/injection, schedule: Q01DX001 (ip), vehicle: saline) 103 % of control.
For the molecule `O=NN(CCF)C(=O)NC1CCCCC1`, the T/C is, setting by setting: under setting [1], 120 % of control; (endpoint: mean survival time, dose: 13.5 mg/kg/injection, schedule: Q01DX001 (ip), vehicle: other) 166 % of control and 214 % of control and 233 % of control; (endpoint: mean survival time, dose: 13.5 mg/kg/injection, schedule: Q01DX001 (oral), vehicle: other) 253 % of control and 270 % of control and 284 % of control; (endpoint: mean survival time, dose: 20.0 mg/kg/injection, schedule: Q01DX001 (ip), vehicle: carboxymethylcellulose (CMC)) 180 % of control; (endpoint: mean survival time, dose: 27.0 mg/kg/injection, schedule: Q01DX001 (ip), vehicle: other) 156 % of control and 373 % of control and 379 % of control; (endpoint: mean survival time, dose: 27.0 mg/kg/injection, schedule: Q01DX001 (oral), vehicle: other) 325 % of control and 352 % of control and 462 % of control. The T/C runs as follows: (endpoint: mean survival time, dose: 30.0 mg/kg/injection, schedule: Q01DX001 (ip), vehicle: carboxymethylcellulose (CMC)) 290 % of control and 322 % of control; (endpoint: mean survival time, dose: 45.0 mg/kg/injection, schedule: Q01DX001 (ip), vehicle: carboxymethylcellulose (CMC)) 293 % of control and 337 % of control; (endpoint: mean survival time, dose: 54.0 mg/kg/injection, schedule: Q01DX001 (ip), vehicle: other) 190 % of control and 322 % of control and 367 % of control; (endpoint: mean survival time, dose: 54.0 mg/kg/injection, schedule: Q01DX001 (oral), vehicle: other) 203 % of control and 379 % of control; under setting [2], 275 % of control.
Take `CN(Cc1cnc2nc(N)nc(N)c2n1)c1ccc(C(=O)N[C@@H](CCC(=O)O)C(=O)O)cc1`: the T/C was 158 % of control (endpoint: mean survival time, dose: 0.6 mg/kg/injection, schedule: Q01DX009 (ip), vehicle: saline); 150 % of control (endpoint: mean survival time, dose: 1.25 mg/kg/injection, schedule: Q01DX009 (ip), vehicle: other); 168 % of control (endpoint: mean survival time, dose: 1.25 mg/kg/injection, schedule: Q01DX009 (ip), vehicle: saline); 112 % of control (endpoint: mean survival time, dose: 2.5 mg/kg/injection, schedule: Q01DX009 (ip), vehicle: saline); 108 % of control (endpoint: mean survival time, dose: 3.0 mg/kg/injection, schedule: Q01DX009 (ip), vehicle: sodium bicarbonate); 95 % of control (endpoint: mean survival time, dose: 5.0 mg/kg/injection, schedule: Q01DX009 (ip), vehicle: saline). For the same molecule, the T/C is, setting by setting: (endpoint: mean survival time, dose: 5.0 mg/kg/injection, schedule: Q01DX009 (ip), vehicle: sodium bicarbonate) 94 % of control; (endpoint: mean survival time, dose: 8.0 mg/kg/injection, schedule: Q01DX001 (ip), vehicle: sodium bicarbonate) 111 % of control; (endpoint: mean survival time, dose: 14.0 mg/kg/injection, schedule: Q04DX003 (ip), vehicle: sodium bicarbonate) 113 % of control; (endpoint: mean survival time, dose: 16.0 mg/kg/injection, schedule: Q01DX001 (ip), vehicle: sodium bicarbonate) 114 % of control; (endpoint: mean survival time, dose: 19.0 mg/kg/injection, schedule: Q01DX001 (ip), vehicle: water) 108 % of control; (endpoint: mean survival time, dose: 23.0 mg/kg/injection, schedule: Q04DX003 (ip), vehicle: sodium bicarbonate) 112 % of control. Further, the T/C is, setting by setting: (endpoint: mean survival time, dose: 29.0 mg/kg/injection, schedule: Q01DX001 (ip), vehicle: water) 111 % of control; (endpoint: mean survival time, dose: 32.0 mg/kg/injection, schedule: Q01DX001 (ip), vehicle: sodium bicarbonate) 117 % of control; (endpoint: mean survival time, dose: 39.0 mg/kg/injection, schedule: Q04DX003 (ip), vehicle: sodium bicarbonate) 115 % of control; (endpoint: mean survival time, dose: 43.0 mg/kg/injection, schedule: Q01DX001 (ip), vehicle: water) 113 % of control; (endpoint: mean survival time, dose: 64.0 mg/kg/injection, schedule: Q01DX001 (ip), vehicle: sodium bicarbonate) 121 % of control; (endpoint: mean survival time, dose: 65.0 mg/kg/injection, schedule: Q04DX003 (ip), vehicle: sodium bicarbonate) 100 % of control. Besides, the T/C (endpoint: mean survival time, dose: 128.0 mg/kg/injection, schedule: Q01DX001 (ip), vehicle: sodium bicarbonate) is 109 % of control; the T/C (endpoint: median survival time, dose: 0.5 mg/kg/injection, schedule: Q01DX009 (ip), vehicle: sodium bicarbonate) is 102 % of control; the T/C (endpoint: median survival time, dose: 1.0 mg/kg/injection, schedule: Q01DX009 (ip), vehicle: sodium bicarbonate) was 113 % of control.
